Results reported in the supplement of paper PMC10331698.
± gives the standard deviation of the averaged measurements.

Experiments:
Assay in all cases: level (log10 ratio to DMSO vehicle control); higher = higher biomarker level / cell amount than vehicle control
[1] = compound: NC(=O)C(F)(F)C(F)(F)F [Pentafluoropropionamide]; settings: in DMSO
Method: (§1)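 BioMAP Diversity Plus panel of 12 human primary cell co-culture systems (3C, 4H, LPS, SAg, BT, BF4T, BE3C, CASM3C, HDF3CGF, KF3CT, MyoF, Mphg). Compounds were added 1 h before stimulation and left for 24 h (MyoF 48 h; BT 72 h for soluble read-outs or 6 d for IgG). Biomarkers were read by ELISA, cytotoxicity by SRB, PBMC viability and proliferation by Alamar Blue. Each well value was divided by the mean of 8 DMSO control wells on the same plate and log10 transformed; duplicate blinded samples were tested at 4 concentrations.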

[2] = compound: OCCCC(F)(F)C(F)(F)C(F)(F)C(F)(F)C(F)(F)C(F)(F)C(F)(F)F [7:3 Fluorotelomer alcohol]; settings: 6700 nM; in DMSO
Method: as §1

[3] = compound: O=C(O)C(F)(F)C(F)(F)F [Perfluoropropanoic acid]; settings: in DMSO
Method: as §1

[4] = compound: O=C(O)C(F)(F)C(F)(F)C(F)(F)C(F)(F)C(F)(F)C(F)(F)F [Perfluoroheptanoic acid]; settings: in DMSO
Method: as §1

[5] = compound: O=C(O)C(F)(F)C(F)(F)C(F)F [4H-Perfluorobutanoic acid]; settings: in DMSO
Method: as §1

[6] = compound: C=C(C)C(=O)OCCC(F)(F)C(F)(F)C(F)(F)C(F)(F)C(F)(C(F)(F)F)C(F)(F)F [(Perfluoro-5-methylhexyl)ethyl 2-methylprop-2-enoate]; settings: in DMSO
Method: as §1

[7] = compound: OCC(F)(F)OC(F)(F)C(F)(F)OC(F)(F)CO [1H,1H,8H,8H-Perfluoro-3,6-dioxaoctane-1,8-diol]; settings: in DMSO
Method: as §1

[8] = compound: OCCC(F)(F)C(F)(F)C(F)(F)C(F)(F)C(F)(F)C(F)(F)F [6:2 Fluorotelomer alcohol]; settings: in DMSO
Method: as §1

Test System	level (log10) ([1]; 6700 nM)	level (log10) ([1]; 20000 nM)	level (log10) ([1]; 60000 nM)	level (log10) [2]	level (log10) ([3]; 6700 nM)	level (log10) ([3]; 20000 nM)	level (log10) ([3]; 60000 nM)	level (log10) ([4]; 6700 nM)	level (log10) ([4]; 20000 nM)	level (log10) ([4]; 60000 nM)	level (log10) ([5]; 6700 nM)	level (log10) ([5]; 20000 nM)	level (log10) ([5]; 60000 nM)	level (log10) ([6]; 6700 nM)	level (log10) ([6]; 20000 nM)	level (log10) ([7]; 6700 nM)	level (log10) ([7]; 20000 nM)	level (log10) ([7]; 60000 nM)	level (log10) ([8]; 6700 nM)	level (log10) ([8]; 20000 nM)
3C:CD87/uPAR	-0.052 ± 0.016	-0.042 ± 0.038	-0.049 ± 0.014	-0.003 ± 0.031	-0.008 ± 0.011	-0.005 ± 0.011	0.0125 ± 0.013	0.0015 ± 0.0021	-0.0115 ± 0.026	0.0045 ± 0.013	-0.0265 ± 0.0092	-0.0065 ± 0.0092	0.0095 ± 0.0064	-0.007 ± 0.0028	-0.019 ± 0.028	-0.0025 ± 0.015	0.019 ± 0.018	0.0015 ± 0.0078	-0.0205 ± 0.059	-0.0095 ± 0.042
3C:CXCL8/IL-8	-0.026 ± 0.013	-0.028 ± 0.0099	0.002 ± 0.044	0.0075 ± 0.0035	0.007 ± 0.03	-0.001 ± 0.02	0.0255 ± 0.047	0.0285 ± 0.04	0.0305 ± 0.056	0.0955 ± 0.088	-0.0015 ± 0.054	0.009 ± 0.0071	0.0395 ± 0.042	0.0105 ± 0.03	0.054 ± 0.086	0.013 ± 0.014	0.014 ± 0.04	0.021 ± 0.081	-0.001 ± 0.0085	-0.0105 ± 0.0092
3C:CXCL9/MIG	-0.0025 ± 0.0078	-0.011 ± 0.0071	0.0085 ± 0.012	-0.0135 ± 0.0035	-0.0005 ± 0.012	0.0025 ± 0.0064	0.0075 ± 0.019	0.0115 ± 0.0035	-0.01 ± 0.0071	0.0135 ± 0.0078	0.005 ± 0.0042	0.0035 ± 0.013	0.012 ± 0.0014	-0.001 ± 0.011	0.0045 ± 0.0035	-0.0025 ± 0.005	-0.004 ± 0.0071	0.0015 ± 0.011	0.0045 ± 0.005	-0.0145 ± 0.0035
3C:HLA-DR	-0.0255 ± 0.029	-0.0165 ± 0.013	-0.0125 ± 0.00071	-0.002 ± 0.0057	-0.003 ± 0.0028	0.0035 ± 0.0035	0.011 ± 0.011	0.006 ± 0.017	0.004 ± 0.013	0.034 ± 0.047	-0.003 ± 0.0057	-0.013 ± 0.011	0.011 ± 0.014	-0.004 ± 0.016	-0.023 ± 0.02	-0.0185 ± 0.012	-0.0095 ± 0.016	0.0005 ± 0.036	0.0095 ± 0.012	-0.01 ± 0.021
3C:Proliferation	-0.0095 ± 0.05	-0.0165 ± 0.0064	-0.0115 ± 0.029	-0.093 ± 0.095	0.019 ± 0.016	0.024 ± 0.073	-0.051 ± 0.083	-0.0365 ± 0.028	0.0245 ± 0.057	-0.109 ± 0.057	-0.023 ± 0.02	-0.03 ± 0.041	0.013 ± 0.065	0.004 ± 0.052	-0.0305 ± 0.0021	-0.066 ± 0.088	0.037 ± 0.035	-0.0475 ± 0.064	-0.0325 ± 0.066	-0.015 ± 0.086
3C:SRB	0.008 ± 0.031	-0.001 ± 0.011	-0.025 ± 0.011	-0.005 ± 0.0028	-0.0115 ± 0.0035	-0.009 ± 0.0028	-0.0065 ± 0.0021	-0.0065 ± 0.0078	0.005 ± 0.0085	-0.0255 ± 0.0035	0.0015 ± 0.0064	-0.007 ± 0.016	-0.0075 ± 0.013	-0.008 ± 0.0042	-0.0175 ± 0.0078	-0.01 ± 0.0085	-0.0105 ± 0.0021	-0.0255 ± 0.0021	-0.006 ± 0.023	0.004 ± 0.028
4H:CCL2/MCP-1	-0.028 ± 0.0042	-0.0445 ± 0.03	0 ± 0.075	0.025 ± 0.0099	-0.0455 ± 0.022	-0.0145 ± 0.039	0.0285 ± 0.039	-0.0115 ± 0.0064	-0.0165 ± 0.013	0.025 ± 0.024	-0.066 ± 0.047	-0.0555 ± 0.029	-0.0005 ± 0.028	-0.0135 ± 0.011	0.002 ± 0.0042	-0.037 ± 0.041	-0.03 ± 0.013	0.008 ± 0.055	0.009 ± 0.0085	-0.0065 ± 0.018
4H:CCL26/Eotaxin-3	-0.001 ± 0.013	-0.0015 ± 0.013	0.0065 ± 0.026	0.005 ± 0.014	-0.0115 ± 0.0092	-0.0045 ± 0.012	-0.015 ± 0.017	0.0055 ± 0.0064	0.0045 ± 0.0092	-0.015 ± 0.0085	-0.0165 ± 0.012	-0.008 ± 0.011	0.008 ± 0.0085	0.042 ± 0.058	0.039 ± 0.02	0.0015 ± 0.0021	0.0015 ± 0.0092	-0.0035 ± 0.00071	0.0545 ± 0.013	0.016 ± 0.04
4H:CD62P/P-selectin	-0.023 ± 0.054	-0.0265 ± 0.0078	-0.0475 ± 0.03	0.04 ± 0.027	-0.0215 ± 0.0021	-0.012 ± 0.0042	0.0105 ± 0.026	0.007 ± 0.018	0.0035 ± 0.016	0.0605 ± 0.05	-0.0185 ± 0.042	0.0005 ± 0.057	-0.011 ± 0.04	-0.017 ± 0.03	-0.02 ± 0.028	0.0225 ± 0.091	0.034 ± 0.055	0.0615 ± 0.046	0.0165 ± 0.012	-0.004 ± 0.02
4H:CD87/uPAR	0.009 ± 0.02	-0.0185 ± 0.00071	-0.009 ± 0.0099	0.0105 ± 0.015	-0.0325 ± 0.025	-0.014 ± 0.011	0.0085 ± 0.016	0.0355 ± 0.042	-0.007 ± 0.054	0.061 ± 0.14	-0.0265 ± 0.025	-0.0065 ± 0.0035	-0.004 ± 0.044	0.0115 ± 0.037	0 ± 0.0071	0.015 ± 0.044	0.0265 ± 0.0035	0.0065 ± 0.044	-0.002 ± 0.033	0.001 ± 0.033
4H:CD106/VCAM-1	-0.02	-0.011 ± 0.03	0.0015 ± 0.0092	0.019 ± 0.013	-0.0085 ± 0.011	-0.0075 ± 0.00071	0 ± 0.014	0.0215 ± 0.035	0.0045 ± 0.049	0.007 ± 0.017	-0.003 ± 0.014	-0.0165 ± 0.011	0.0065 ± 0.011	-0.012 ± 0.016	-0.0005 ± 0.005	0.0145 ± 0.012	-0.0105 ± 0.0021	-0.0025 ± 0.015	0 ± 0.0057	-0.002 ± 0.0057
4H:SRB	-0.0055 ± 0.021	-0.0095 ± 0.0078	-0.0135 ± 0.016	-0.0015 ± 0.0064	0 ± 0.0028	-0.002 ± 0.0071	0.0095 ± 0.0092	-0.0035 ± 0.005	0.0135 ± 0.026	-0.024 ± 0.021	-0.0085 ± 0.0092	-0.003 ± 0.0071	0.0055 ± 0.0035	0.002 ± 0.013	-0.0025 ± 0.019	-0.014 ± 0.0099	-0.0195 ± 0.015	-0.047 ± 0.0071	-0.011 ± 0.024	-0.006 ± 0.024
4H:VEGFR2	0.032 ± 0.014	0.034 ± 0.027	0.072 ± 0.031	0.014 ± 0.017	-0.0375 ± 0.026	-0.011 ± 0.04	0.049 ± 0.042	0.016 ± 0.027	0.022 ± 0.013	0.012 ± 0.054	-0.0255 ± 0.015	-0.005 ± 0.042	0.012 ± 0.05	-0.0185 ± 0.037	-0.0115 ± 0.033	0.011 ± 0.045	0.043 ± 0.044	0.0595 ± 0.049	-0.058 ± 0.024	-0.072 ± 0.078
BE3C:CD54/ICAM-1	-0.0045 ± 0.0021	0.002 ± 0.0028	-0.0055 ± 0.00071	-0.0125 ± 0.00071	-0.025 ± 0.017	0 ± 0.0014	0.007 ± 0.016	-0.007 ± 0.0071	-0.023 ± 0.0028	-0.0055 ± 0.022	-0.0085 ± 0.0021	-0.0245 ± 0.00071	0.0125 ± 0.033	-0.0075 ± 0.0021	0.005 ± 0.0042	0.0195 ± 0.013	0.0045 ± 0.015	0.0055 ± 0.022	0.0035 ± 0.018	0.001 ± 0.016
